In publication PMC8997848, “How Cargo Identity Alters the Uptake of Cell-Penetrating Peptide (CPP)/Cargo Complexes: A Study on the Effect of Net Cargo Charge and Length” (Cells, 2022):

Key:
HeLa cells [1] = test: Live-cell fluorescent microscopy with line scans of intracellular peptide distribution; type: cell-based; conditions: for intracellular distribution of fluorescence / cellular uptake seen by fluorescence microscopy: 10 μM peptide, 60 min, 37 °C; for intracellular distribution of fluorescence: images and line scans across individual cells (Figures 3, 4, S8); for cellular uptake seen by fluorescence microscopy: FITC filter (Figure 3)
Experimental: One day prior to the experiment, HeLa cells were seeded in 8-chambered Falcon Culture Slides (Corning) at a density of 3 × 10^4 cells/mL. On the day of the experiment, cells were washed once with ECB before incubation with 10 μM peptide solution (500 μL/well) for 1 h at 37 °C. Following incubation, cells were washed twice with ECB then incubated with 8 μM Hoechst 3342 nuclei acid stain (ThermoFisher Scientific, Carlsbad, CA, USA) for 20 min at room temperature. Cellular fluorescence was visualized using a Leica DMi8 inverted microscope outfitted with a 40× objective (Leica N PLAN L, 0.55× correction). Images were acquired using the digital CMOS camera C11440 (Hamamatsu Photonics K.K., Japan) with a fixed exposure time of 500 ms for the FITC filter, 150 ms for the DAPI filter, and 20 ms for brightfield. The following excitation/emission filters (Chroma Tech. Corp, Bellows Falls, VT, USA) were used to image the device: fluorescein isothiocyanate-FITC (λex 440–520 nm and λem 497–557 nm) for capturing the signal from FAM and DAPI (λex 335–385 nm and λem 405–465 nm) for capturing the signal from the Hoescht stain. Image acquisition was controlled using the Leica Application Suite software (LAS X, version 3.7.4.23463), where all images were recorded using the same parameters. The imaging was followed by quantitative analysis, where a manual line scan region of interest (ROI) was drawn across the center of the cells to quantify their fluorescent signals. Random ROIs were also drawn in free space not containing cells to measure background noise for each image. The fluorescent values were normalized by subtracting the noise from the measured signal.

HeLa cells [2] = conditions: cited from earlier work
Excerpt: In addition to improving the permeability and stability of the CPPs themselves, there is significant interest in utilizing known CPPs to deliver bioactive cargoes, such as nanoparticles, therapeutics, or biosensors, to cells. CPPs have found great success of late as delivery vehicles for peptide-based therapeutics, such as PROTACs (proteolysis targeting chimeras), which facilitate the degradation of “undruggable” proteins by selectively ubiquitinating the target protein for proteasome-mediated degradation. […] With the majority of well characterized CPPs being unstructured, and considering the differences in uptake levels, cytotoxicity, and intracellular stability that has been observed when comparing unstructured and structured CPPs, it was important to compare the effects of net cargo charge and length on both unstructured (nona-arginine, R1) and structured (RWRWR, H1) CPPs. To examine the ...

HeLa cells [3] = test: Quantification of CPP and CPP/cargo uptake by fluorometry of FAM signal in cell lysate; type: cell-based; conditions: for time dependence of uptake (single factor ANOVA): 10 µM peptide, 10, 20, 40, 60, 100, 120 min, triplicate (Tables S1, S6); for uptake of CPP/cargo complex compared to the H1 CPP alone (in words) / effect of net cargo length and arginine position on cellular uptake (one-way ANOVA): 10 µM; for uptake of CPP/cargo complex compared to the H1 CPP alone (in words): uptake normalized against H1, triplicate (Figure 1A); for time-dependent analysis of peptide uptake (in words): 10-120 min, triplicate (Figures S5, S7); for effect of net cargo length and arginine position on cellular uptake (one-way ANOVA): 1 h, cargoes of +2 charge, 4 or 8 residues, triplicate (Figure 1B, Table S3)
Experimental: The quantification of peptide uptake was performed using a protocol previously utilized by Safa et al. and Vaithiyanathan et al.. Three days prior to the experiment, HeLa cells were seeded at a density of 1 × 10^4 cells/mL in 12 well plates. Prior to experiments, peptides were reconstituted in sodium phosphate buffer (2.26 mM NaH2PO4·H2O and 8.43 mM Na2HPO4·7H2O) and the peptide concentration was determined using a NanoDrop at the wavelength of 492 nm using the UV-vis function. On the day of the experiment, peptides were diluted to the desired final concentration with extracellular buffer, ECB (5.036 mM HEPES pH 7.4, 136.89 mM NaCl, 2.68 mM KCl, 2.066 mM MgCl2·6H2O, 1.8 mM, CaCl2·2H2O, and 5.55 mM glucose). Cells were washed once with PBS followed by peptide incubation (500 μL/well) at 37 °C. Plates were wrapped in aluminum foil during incubation to avoid deactivating the FAM tag on the peptide. Following the incubation, the peptide solutions were removed, and cells were washed twice with ECB. Cells were then trypsinized (250 μL/well) for 10 min at room temperature. The cells were resuspended in ECB (1 mL/well) and transferred to microcentrifuge tubes. The samples were centrifuged at 1800 rcf for 2.5 min. The supernatant was removed, and the isolated cells were lysed with 0.1 M NaOH (250 μL/tube). Samples were centrifuged again at 14,000 rcf for 5 min to remove any remaining protein bound to the membranes before transferring 150 μL of clarified lysate to a 96 well plate. Fluorometry (Perkin Elmer (Waltham, MA, USA) Wallac 1420 VICTOR2 multilabel HTS counter) was used to quantify the signal resulting from the FAM tag using an excitation filter of 490 nm and an emission filter of 535 nm. For each experiment, a no peptide control (cells incubated with ECB only) was performed. To measure the background signal of each peptide, the peptide solutions used in each experiment were analyzed by fluorometry to normalize the fluorescent signal for each sample. Signals were normalized using Equation (1):Normalized Fluorescence = 1000 × (F − C)/(P − B)(1) where F denotes the fluorescent signal of cells incubated with peptide, C denotes the fluorescent signal of cells incubated with no peptide, P denotes the average fluorescent signal of the peptide in suspension, and B denotes the average fluorescent signal of the ECB. Reported data for each experiment is the average of triplicate samples. Statistical analysis was carried out using JMP Pro 16 software (SAS Institute).

HeLa cells [4] = test: alamarBlue cell viability assay; type: cell-based; conditions: 37 °C, 4 h (2 h in method and Figure 2), then alamarBlue 4 h, normalized to no peptide control, triplicate; for effect on cellular viability at 5 µM: HeLa cells, 5 µM peptide; for decrease in cellular viability: HeLa cells, 10, 20, and 30 μM peptide
Experimental: Two days prior to the experiment, HeLa cells were plated at a density of 1 × 10^5 cells/well in a 96 well plate. Cells were washed once with PBS and incubated with peptide solutions for 2 h at 37 °C. Following this incubation period, cells were washed with ECB and incubated with a mixture of 10 μL alamarBlue Viability Reagent (ThermoFisher Scientific, Carlsbad, CA, USA) in 90 μL serum-free media for 4 h at 37 °C. The fluorescent signal of alamarBlue was measured using fluorometry with an excitation filter of 532 nm and an emission filter of […]. A no peptide control was also performed to normalize the fluorescent signals. Signals were normalized using Equation (2):Normalized Cell Viability = F/C(2) where F denotes the fluorescent signal of cells incubated with peptide and C denotes the fluorescent signal of cells incubated with no peptide. The reported data are the average of triplicate samples.

[5] = cited from earlier work
Excerpt: With the majority of well characterized CPPs being unstructured, and considering the differences in uptake levels, cytotoxicity, and intracellular stability that has been observed when comparing unstructured and structured CPPs, it was important to compare the effects of net cargo charge and length on both unstructured (nona-arginine, R1) and structured (RWRWR, H1) CPPs. To examine the ...

[6] = 10 µM peptide, FAM fluorometry of lysate
[7] = 10 µM peptide, 60 min, 37 °C, FAM fluorometry of lysate, triplicate (Figure 5)

FAM-RRRRRRRRR [R1, unstructured nona-arginine CPP, FAM labelled; commercial peptide ARG from AnaSpec, reference compound]
intracellular distribution of fluorescence (HeLa cells [1]): punctate regions
uptake efficiency compared to the RWRWR (H1) CPP (HeLa cells [2]): 2 fold

RWVRVpGO(FAM)WIRQ-GEGE [H4, H1 CPP with 4-residue cargo GEGE, net charge −2]
time dependence of uptake (single factor ANOVA) (HeLa cells [3]): demonstrate time dependence
uptake of CPP/cargo complex compared to the H1 CPP alone (in words) (HeLa cells [3]; 60 min, 37 °C): diminished uptake

RWVRVpGO(FAM)WIRQ-GEGEGEGE [H7, H1 CPP with 8-residue cargo, net charge −4]
time dependence of uptake (single factor ANOVA) (HeLa cells [3]): no time dependence
uptake of CPP/cargo complex compared to the H1 CPP alone (in words) (HeLa cells [3]; 60 min, 37 °C): diminished uptake
cellular uptake seen by fluorescence microscopy (HeLa cells [1]): impermeability

FAM-RRRRRRRRR-GRGR [R2, nona-arginine CPP with 4-residue cargo GRGR, net charge +2]
time dependence of uptake (single factor ANOVA) (HeLa cells [3]): time-dependent
time-dependent analysis of peptide uptake (in words) (HeLa cells [3]; [6]): greater uptake that the R1 CPP
increase in uptake compared to counterpart with H1 CPP (H2 and H5, respectively) (HeLa cells [3]; [7]): 140%
increase in uptake compared to the R1 CPP (HeLa cells [3]; [7]): 29%

RWVRVpGO(FAM)WIRQ-GRGRGGGG [H9, H1 CPP with 8-residue +2 cargo, arginines closer to the N-terminus]
effect of net cargo length and arginine position on cellular uptake (one-way ANOVA) (HeLa cells [3]): no significant difference in cellular uptake

RWVRVpGO(FAM)WIRQ-GGGGGRGR [H8, H1 CPP with 8-residue +2 cargo, arginines closer to the C-terminus]
effect of net cargo length and arginine position on cellular uptake (one-way ANOVA) (HeLa cells [3]): no significant difference in cellular uptake

RWVRVpGO(FAM)WIRQ-GRGR [H2, H1 CPP with 4-residue cargo GRGR, net charge +2]
time dependence of uptake (single factor ANOVA) (HeLa cells [3]): demonstrate time dependence
time-dependent analysis of peptide uptake (in words) (HeLa cells [3]; [6]): greatest penetration
effect of net cargo length and arginine position on cellular uptake (one-way ANOVA) (HeLa cells [3]): no significant difference in cellular uptake
effect on cellular viability at 5 µM (HeLa cells [4]): did not result in a decrease in cellular viability
decrease in cellular viability (HeLa cells [4]): ~ 5%

RWVRVpGO(FAM)WIRQ [H1, RWRWR β-hairpin CPP, FAM on ornithine side chain]
time dependence of uptake (single factor ANOVA) (HeLa cells [3]): demonstrate time dependence
time-dependent analysis of peptide uptake (in words) (HeLa cells [3]; [6]): greatest penetration
effect on cellular viability at 5 µM (HeLa cells [4]): did not result in a decrease in cellular viability
decrease in cellular viability (HeLa cells [4]): ~ 5%
cellular uptake seen by fluorescence microscopy (HeLa cells [1]): successful cellular uptake
intracellular distribution of fluorescence (HeLa cells [1]): evenly distributed throughout the cell
time needed for uptake / sufficient internalization (HeLa cells [2]; HeLa cells): < 10 min
increased intracellular stability compared to nona-arginine CPP [5]: 20 fold

RWVRVpGO(FAM)WIRQ-GGGG [H3, H1 CPP with 4-residue cargo GGGG, net charge 0]
time dependence of uptake (single factor ANOVA) (HeLa cells [3]): no time dependence
uptake of CPP/cargo complex compared to the H1 CPP alone (in words) (HeLa cells [3]; 60 min, 37 °C): diminished uptake

FAM-RRRRRRRRR-GRGRGRGR [R3, nona-arginine CPP with 8-residue cargo, net charge +4]
time dependence of uptake (single factor ANOVA) (HeLa cells [3]): time-dependent
time-dependent analysis of peptide uptake (in words) (HeLa cells [3]; [6]): greater uptake that the R1 CPP
increase in uptake compared to counterpart with H1 CPP (H2 and H5, respectively) (HeLa cells [3]; [7]): 140%
increase in uptake compared to the R1 CPP (HeLa cells [3]; [7]): 103%

RWVRVpGO(FAM)WIRQ-GRGRGRGR [H5, H1 CPP with 8-residue cargo, net charge +4]
increase in CPP/cargo uptake on increasing arginine residues from 2 (H2) to 4 (H5) (HeLa cells [3]; 10 µM peptide in ECB, 60 min, 37 °C, trypsinized, lysed in 0.1 M NaOH, FAM fluorometry ex 490/em 535 nm, average of triplicate, compared to H2): 58%
time dependence of uptake (single factor ANOVA) (HeLa cells [3]): demonstrate time dependence
time-dependent analysis of peptide uptake (in words) (HeLa cells [3]; [6]): greatest penetration
effect on cellular viability at 5 µM (HeLa cells [4]): did not result in a decrease in cellular viability
decrease in cellular viability (HeLa cells [4]): ~ 5%
cellular uptake seen by fluorescence microscopy (HeLa cells [1]): successful cellular uptake
intracellular distribution of fluorescence (HeLa cells [1]): punctate regions of increased fluorescence
cell-to-cell heterogeneity of uptake compared to cells incubated with H1 (HeLa cells [1]; 10 μM, average fluorescence intensity in individual cells (Figure S6)): substantially higher heterogeneity
average uptake from single-cell fluorescence intensity compared to H1 (HeLa cells [1]; 10 μM, line scans across 20 single cells, normalized against background (Figure S6)): substantially higher average uptake

RWVRVpGO(FAM)WIRQ-GGGGGGGG [H6, H1 CPP with 8-residue cargo, net charge 0]
time dependence of uptake (single factor ANOVA) (HeLa cells [3]): demonstrate time dependence
uptake of CPP/cargo complex compared to the H1 CPP alone (in words) (HeLa cells [3]; 60 min, 37 °C): diminished uptake

FAM-RRRRRRRRR-GGGGGGGG [R4, nona-arginine CPP with 8-residue neutral cargo]
decrease in cellular internalization compared to R1 CPP (HeLa cells [3]; [7]): 50%
